Data as given in patent US20250345317A1, “New pharmaceutical compounds, methods and uses thereof” (BBIT-THERAPEUTICS, LDA., priority 2020, published 2025).

Legend:
NCI-H460 = assay: Growth inhibition, SRB assay, NCI-H460; type: cell-based; conditions: Homo sapiens, NCI-H460, wild-type BRCA1/2, 48 hours
Text: (§1) Table 2 refers to the growth inhibitory effect of COMP, olaparib and cisplatin (CDDP) in a panel of human immortalized breast (T47D, MCF-7, MDA-MB-231, MDA-MB-468, SK-BR-3 and HCC1937), ovarian and endocervical (OCVAR, SKOV-3, […],IGROV-1 and HeLa), pancreatic (PANC-1 and MIAPACA), neuroblastoma (SHSY-5Y), lung (NCI-H460), prostate (VCaP) melanoma (A375 and SK-MEL-5) and glioblastoma (SF-208) cancer cells, immortalized normal MCF10a and HFF1 human cells, and patient-derived ovarian (PD-OVCA #1, #9, #41, #49 and #62) cancer cells. […] Data are mean±SEM (n=5).
(§2) In an embodiment, IC50 values were determined by Sulforhodamine B (SRB) or MTS [3-(4,5-dimethylthiazol-2-yl)-5-(3-carboxymethoxyphenyl)-2-(4-sulfophenyl)-2H-tetrazolium] assay in immortalized and PD-OVCA cells, respectively. Cancer cells were plated in 96-well plates and incubated for 24 hours. Cells were then exposed to serial dilutions of compounds for 48 hours. The solvent DMSO corresponding to the maximum concentration used in these assays (0.025%) was included as control. Results are the mean±S.E.M. of 3-5 independent experiments.

SF-208 = assay: Growth inhibition, SRB assay, SF-208; type: cell-based; conditions: Homo sapiens, SF-208, wild-type BRCA1/2, 48 hours
Text: as §1, §2

SK-MEL-5 = assay: Growth inhibition, SRB assay, SK-MEL-5; type: cell-based; conditions: Homo sapiens, SK-MEL-5, wild-type BRCA1/2, 48 hours
Text: as §1, §2

A375 = assay: Growth inhibition, SRB assay, A375; type: cell-based; conditions: Homo sapiens, A-375, A375, wild-type BRCA1/2, 48 hours
Text: as §1, §2

Vcap = assay: Growth inhibition, SRB assay, Vcap; type: cell-based; conditions: Homo sapiens, wild-type BRCA1/2, 48 hours
Text: as §1, §2

MDA-MB-231 = assay: Growth inhibition, SRB assay, MDA-MB-231; type: cell-based, human; conditions: Homo sapiens, MDA-MB-231, 48 h
Text: as §1, §2

MDA-MB-468 = assay: Growth inhibition, SRB assay, MDA-MB-468; type: cell-based, human; conditions: Homo sapiens, MDA-MB-468, 48 h
Text: as §1, §2

MCF10a = assay: Growth inhibition, SRB assay, normal MCF10a cells; type: cell-based, human; conditions: Homo sapiens, MCF-10A, 48 hours
Text: as §1, §2

PD-OVCA#62 = assay: Growth inhibition, MTS assay, PD-OVCA#62; type: cell-based, human; conditions: Homo sapiens, PD-OVCA#62, wild-type BRCA1/2, 48 hours
Text: as §1, §2

[1] = tested on: breast cancer cells (T47D, MCF-7, MDA-MB-231, MDA-MB-468, SK-BR-3 and HCC1937); assay: Growth inhibition, panel of breast cancer cells; type: cell-based; conditions: Homo sapiens, range over T47D, 48 hours
Protocol: In an embodiment, the activity of COMP compound was tested in an array of human normal and cancer cell lines (Table 2, FIG. 2).
as §1, §2

[2] = tested on: triple-negative breast cancer and ovarian cancer cells (MDA-MB-231, IGROV-1, HCC1937); assay: Colony-formation assay; type: cell-based, human; conditions: 8 days (MDA-MB-231 and IGROV-1), 16 days (HCC1937) of treatment
Protocol: FIG. 4 illustrates the effect of COMP on (A-B) colony formation of cancer cells after 8 days (MDA-MB-231 and IGROV-1) and 16 days (HCC1937) of treatment. In FIG. 4A, representative experiments are shown.
In an embodiment, colony-formation assay was performed.

HCC1937 mammospheres = assay: 3D-mammosphere model; type: cell-based, human
Protocol: FIG. 5 illustrates the effect of COMP on (A-B) HCC1937 mammosphere formation after 72 hours of treatment with COMP; treatment was performed at seeding time of HCC1937 cells or at (C-D) three-day-old HCC1937 mammospheres for up to 11 days of treatment. FIG. 5A and FIG. 5C are representative images (scale bar=50 μm, 100× magnification).

[3] = tested on: key proteins involved in homologous recombination, proliferation and chemoresistance; assay: Protein expression by western blot; type: cell-based, human; conditions: 12 μM, 48 hours
Protocol: FIG. 6 illustrates the effect of 12 μM COMP on the (A-B) expression of key proteins involved in homologous recombination, proliferation and chemoresistance in triple-negative breast cancer and ovarian cancer cells after 48 hours of treatment.
In an embodiment, the COMP compound modulated the expression of key proteins involved in homologous DNA repair, proliferation, chemoresistance, induced cell cycle arrest, apoptosis and ROS generation, in triple-negative breast cancer and ovarian cancer cells.

BRCA1-BARD1 interaction = assay: Co-IP of BRCA1-BARD1 interaction; type: cell-based, human; conditions: 12 and 20 μM; 18 hours (MDA-MB-231, HCC1937), 24 hours (IGROV-1)
Protocol: (FIGS. 11A-D) Co-IP was performed in MDA-MB-231 (FIG. 11A), HCC1937 (FIG. 11B) and IGROV-1 (FIG. 11C) cells treated with 12 and 20 μM COMP for 18 hours (in MDA-MB-231 and HCC1937 cells) and 24 hours (in IGROV-1 cells). Assay was performed using the Pierce classic magnetic IP and Kit followed by western blot detection. In FIGS. 11A-C, representative immunoblots are shown; whole-cell lysate (Input).

HCC1937 cells = assay: Wound healing assay (cell migration); type: cell-based, human; conditions: 1.9 μM
Protocol: FIG. 12 illustrates the prevention of HCC1937 cells migration by COMP. Confluent cells were treated with 1.9 μM COMP or DMSO and observed at different time-points in the wound healing assay (scale bar=50 μm and magnification=100×).
In an embodiment, COMP prevented cell migration of triple-negative breast cancer cells. The effect of COMP on the migration ability of HCC1937 cells was also studied.

IC50 (NCI-H460): 15.5 ± 1.5 µM
IC50 (SK-MEL-5): 5.65 ± 0.95 µM
IC50 (A375): 15.5 ± 0.5 µM
IC50 (Vcap): 11.7 ± 3.4 µM
IC50 (MDA-MB-231; MDA-MB-231, BRCA1 loss of heterozigoty, 48 hours): 5 ± 1.4 µM
IC50 (MDA-MB-231; MDA-MB-231, BRCA1 loss of heterozygosity, 48 hours (second Table 2)): 5 µM
IC50 (MDA-MB-468; MDA-MB-468, BRCA1 loss of heterozigoty, 48 hours): 4.4 ± 0.8 µM
IC50 (MDA-MB-468; MDA-MB-468, BRCA1 loss of heterozygosity, 48 hours (second Table 2)): 4.4 µM
IC50 [1]: 4.4 to 12 µM
SMILES: CC[C@H]1CN(C)C2Cc3c([nH]c4ccccc34)/C(=N/Nc3ccc(Br)cn3)C[C@@H]1[C@@H]2C(=O)OC [COMP, methyl (5R,6S,14S,E)-8-(2-(5-bromopyridin-2-yl) hydrazineylidene)-5-ethyl-3-methyl-2,3,4,5,6,7,8,9-octahydro-1H-2,6-methanoazecino [5,4-b]indole-14-carboxylate]
IC50 (SF-208): 12.5 ± 0.45 µM
IC50 (MCF10a): 29.5 µM
IC50 (PD-OVCA#62): 14.2 ± 2.9 µM
colony-forming ability of cancer cells [2]: significantly reduced
mammosphere growth in three-day old spheroids (HCC1937 mammospheres; 6 μM and 12 μM, up to 11 days): markedly reduced
mammosphere (spheroids) formation (HCC1937 mammospheres; 6 μM, added upon seeding of HCC1937 cells, 72 hours): complete abolishment of spheroids formation
mammosphere integrity in three-day old spheroids (HCC1937 mammospheres; 12 μM, up to 11 days): triggering mammosphere disintegration
PUMA and cleaved PARP protein expression levels [3]: increase
expression levels of DNA damage repair proteins (BRCA1, BRCA2, RAD51, RAD52, FANCD2, pATM, pATR) and resistance-related proteins (CDK2, survivin, BARD1) [3]: significantly decreased
expression of p21 [3]: increased expression of p21
BRCA1-BARD1 interaction (BARD1 co-immunoprecipitated with BRCA1) (BRCA1-BARD1 interaction): disruption of the BRCA1-BARD1 interaction
wound closure (HCC1937 cells): significantly reduced the wound closure
